Reference: patent US20250009852A1, “DEPLETING EGFR AND HER2 OVERCOMES RESISTANCE TO EGFR INHIBITORS IN COLORECTAL CANCER” (Health Research, Inc., priority 2021, published 2025)

How the values were obtained:
HT29 tumors = assay: Subcutaneous HT29 tumors in SCID mice; type: in vivo, mouse; conditions: sc HT29 tumors
Protocol: SCID mice (C.B.17 SCID) were bred by the Laboratory Animal Shared Resource at Roswell Park Comprehensive Cancer Center. Male mice at 7-8 weeks of age were used. All mouse experiments were approved by the Institutional Animal Care and Use Committee at Roswell Park Comprehensive Cancer Center under protocol 1022M. We established subcutaneous tumors by inoculating 1×10^6 HCT116 cells, 4×10^6 HT29 cells, or 2×10^6 SW48 cells to the flank of each mouse in 100 μl of serum free medium. Colon patient-derived xenograft (PDX) 14650 was established from a liver metastatic lesion in a patient treated at Roswell Park Comprehensive Cancer Center. Tumor fragments (˜20 mm^3) from donor mice were implanted into the flank of each mouse subcutaneously using a trocar. Orthotopic colon tumors in mice were established by inoculating HCT116 cells stably transfected with firefly luciferase (2×10^6 cells in 50 μl of 50% serum-free medium and 50% Matrigel) to the caecum wall of each mouse. Mice in each tumor model were randomized cage-wise into treatment groups using Research Randomizer (www.randomizer.org). Subcutaneous tumor volume was measured using length ×width^2÷2. Tumor volume was measured three times each week. Orthotopic tumor growth was monitored by bioluminescence weekly. Mice were given D-luciferin (150 mg/kg) by ip and anesthetized with isoflurane, and tumor burden was measured by bioluminescence using the IVIS Spectrum In Vivo Imaging System (PerkinElmer). Drug treatment was started when significant tumor growth was detected. EP (0.5 mg/kg) was administered to mice ip once daily. PEPD^G278D (4 mg/kg) was administered to mice ip thrice weekly (Monday, Wednesday, Friday). Aderbasib (60 mg/kg) was administered to mice by gavage once daily. 5-FU (35 mg/kg) was administered to mice ip twice weekly (Monday and Thursday). EP, PEPD^G278D and 5-FU were administered to mice in PBS. Aderbasib was first dissolved in DMSO and then diluted by PBS (final 5% DMSO by volume). […] The mice were closely monitored for sign of adverse effects and weighed three times each week. […]

[1] = test system: HER3, IGF1R, MET, SRC, AKT, ERK, MEK, NRAS, HRAS, caspase 3; assay: Western blotting of tumor homogenates: other signaling proteins; type: in vivo, mouse
Protocol: To prepare whole cell lysates, cells were washed with PBS twice, mixed with 1× cell lysis buffer from Cell Signaling Technology supplemented with 2 mM PMSF and a protease inhibitor cocktail from Roche Applied Science, placed on ice for 10 min, sonicated at 0-4° C. to enhance cell lysis using a Branson Model 450 sonifier, and finally centrifuged at 13,000 g for 10 min at 4° C., and the supernatant fraction is collected as whole cell lysate. Tumor and samples were mixed with RIPA buffer (25 mM Tris-HCl, PH7.6, 150 mM NaCl, 1% Nonidet P-40, 1% sodium deoxycholate, and 0.1% SDS), which was supplemented with 2 mM PMSF, the protease inhibitor cocktail mentioned above, phosphatase inhibitor cocktail 2 and phosphatase inhibitor cocktail 3 from Sigma-Aldrich at 14.3 μl buffer per mg tissue, and homogenized in a Dounce homogenizer. The homogenates were cleared by centrifugation at 13,000 g for 15 min at 4° C.
Protein concentrations in all samples were measured using the BCA Assay Kit. For Western blotting, each sample was mixed with 4× loading dye, heated for 5 min at 95° C., and resolved by SDS-PAGE (8-12.5%). Proteins were transferred to polyvinylidene fluoride membrane, probed with specific antibodies, and detected using either Luminata Classico (Millipore) or Luminata Cresendo (Millipore). […] The beads were washed three times with IP buffer, suspended in 2× SDS loading buffer, boiled for 5 min, and analyzed by Western blotting.
SCID mice (C.B.17 SCID) were bred by the Laboratory Animal Shared Resource at Roswell Park Comprehensive Cancer Center. […] Subcutaneous tumor volume was measured using length ×width^2÷2. Tumor volume was measured three times each week. Orthotopic tumor growth was monitored by bioluminescence weekly. Mice were given D-luciferin (150 mg/kg) by ip and anesthetized with isoflurane, and tumor burden was measured by bioluminescence using the IVIS Spectrum In Vivo Imaging System (PerkinElmer). Drug treatment was started when significant tumor growth was detected. […] The mice were closely monitored for sign of adverse effects and weighed three times each week.

Row | Molecule | tumor growth (HT29 tumors; aderbasib alone 60 mg/kg by gavage daily) | expression or phosphorylation of the proteins analyzed in tumors ([1]; HCT116 and HT29 tumors, single agent) | tumor growth (HT29 tumors; EP plus PEPD^G278D 4 mg/kg ip three times weekly, or cetuximab 15 mg/kg ip twice weekly) | ERK phosphorylation in tumors ([1]; SW48 tumors, 24 h after the final dose)
1 | COC(=O)N1CC2(CC2)C[C@H](C(=O)NO)[C@H]1C(=O)N1CC=C(c2ccccc2)CC1 [aderbasib] | ineffective | neither EP nor aderbasib had any effect | – | –
2 | PEPD^G278D: recombinant and enzymatically inactive mutant of human peptidase D (PEPD), with replacement of glycine 278 by aspartic acid (protein, left off: small tags and cut ends) AAATGPSFWLGNETLKVPLALFALNRQRLCERLRKNPAVQAGSIVVLQGGEETQRYCTDTGVLFLQESFFHWAFGVTEPGCYGVIDVDTGKSTLFVPRLPASHATWMGKIHSKEHFKEKYAVDDVQYVDEIASVLTSQKPSVLLTLRGVNTDSGSVCREASFDGISKFEVNNTILHPEIVESRVFKTDMELEVLRYTNKISSEAHREVMKAVKVGMKEYGLESLFEHYCYSRGGMRHSSYTCICGSGENSAVLHYGHAGAPNDRTIQNGDMCLFDMDGEYYSVASDITCSFPRNGKFTADQKAVYEAVLLSSRAVMGAMKPGDWWPDIDRLADRIHLEELAHMGILSGSVDAMVQAHLGAVFMPHGLGHFLGIDVHDVGGYPEGVERIDEPGLRSLRTARHLQPGMVLTVEPGIYFIDHLLDEALADPARASFLNREVLQRFRGFGGVRIEEDVVVIDSGIELLTCVPRTVEEIEACMAGCDKAFTPFSGPK | – | – | neither agent inhibited the growth | decreased ERK phosphorylation
